Data: patent US20250177363A1, “SUBSTITUTED IMIDAZOPYRIDINYL COMPOUNDS USEFUL AS INHIBITORS OF TLR9” (Bristol-Myers Squibb Company, priority 2022, published 2025)

Columns and labels:
Type in all cases: cell-based
[1] = molecular target: T1, human TLR9 (Homo sapiens, UniProt Q9NR96); experiment: TLR9 inhibition reporter assay (HEK-Blue, SEAP); settings: HEK-Blue cells overexpressing human TLR9, ligand ODN2006 200 nM, 22 hour incubation
T1 construct: host or cells: HEK-Blue cells
T1 sequence (Q9NR96 26-1032): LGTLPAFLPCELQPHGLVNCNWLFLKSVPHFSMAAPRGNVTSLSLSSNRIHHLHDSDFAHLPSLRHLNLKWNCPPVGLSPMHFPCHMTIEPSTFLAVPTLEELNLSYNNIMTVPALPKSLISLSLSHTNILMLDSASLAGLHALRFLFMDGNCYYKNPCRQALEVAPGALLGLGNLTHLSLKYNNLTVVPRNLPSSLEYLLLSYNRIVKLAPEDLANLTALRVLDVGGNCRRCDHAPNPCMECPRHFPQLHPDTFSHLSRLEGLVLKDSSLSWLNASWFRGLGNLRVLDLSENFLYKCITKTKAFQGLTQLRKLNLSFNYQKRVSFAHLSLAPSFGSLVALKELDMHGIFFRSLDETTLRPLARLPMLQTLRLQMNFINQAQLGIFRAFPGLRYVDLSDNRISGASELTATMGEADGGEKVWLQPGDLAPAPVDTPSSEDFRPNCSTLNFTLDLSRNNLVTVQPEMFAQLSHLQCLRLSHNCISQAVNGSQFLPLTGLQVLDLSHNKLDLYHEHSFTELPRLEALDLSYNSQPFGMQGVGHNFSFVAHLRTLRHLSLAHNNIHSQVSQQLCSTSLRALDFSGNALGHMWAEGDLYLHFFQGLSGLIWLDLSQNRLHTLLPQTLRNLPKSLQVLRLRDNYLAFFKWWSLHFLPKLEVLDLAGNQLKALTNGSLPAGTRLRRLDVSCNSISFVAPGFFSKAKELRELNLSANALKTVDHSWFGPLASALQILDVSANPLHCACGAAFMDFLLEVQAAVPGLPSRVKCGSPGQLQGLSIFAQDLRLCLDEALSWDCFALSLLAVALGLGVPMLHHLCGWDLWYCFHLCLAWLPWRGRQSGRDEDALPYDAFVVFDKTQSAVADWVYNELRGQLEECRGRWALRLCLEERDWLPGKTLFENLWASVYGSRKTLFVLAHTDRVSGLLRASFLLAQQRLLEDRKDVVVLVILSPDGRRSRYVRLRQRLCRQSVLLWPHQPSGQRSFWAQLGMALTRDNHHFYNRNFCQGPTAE
Protocol: (§1) TLR7/8/9 Inhibition Reporter Assays
(§2) HEK-Blue™-cells (Invivogen) overexpressing human TLR7. TLR8 or TLR9 receptors were used for screening inhibitors of these receptors using an inducible SEAP (secreted embryonic alkaline phosphatase) reporter gene under the control of the IFN-β minimal promoter fused to five NF-κB and AP-1-binding sites. Cells are seeded into Greiner 384 well plates (15000 cells per well) that are pre dispensed (by ECHO) with testing compounds in DMSO to yield a final dose response concentration range of 0.85 nM-50 μM. After a 60 minute compound pre-treatment in 37 degree incubator, the cells are then stimulated with a TLR7 ligand (gardiquimod at a final concentration of 2.5 μM), TLR8 ligand (R848 at a final concentration of 14.25 μM) or TLR9 ligand (ODN2006 at a final concentration of 200 nM) to activate NF-κB and AP-1 which induce the production of SEAP. After a 22 hour incubation at 37° C., 5% CO2, SEAP levels are determined with the addition of HEK-Blue™ Detection reagent (Invivogen), a cell culture medium that allows for detection of SEAP, according to manufacturer's specifications. The percent inhibition is determined as the % reduction in the HEK-Blue signal present in […].

[2] = molecular target: T2, human TLR7 (Homo sapiens, UniProt Q9NYK1); experiment: TLR7 inhibition reporter assay (HEK-Blue, SEAP); settings: HEK-Blue cells overexpressing human TLR7, ligand gardiquimod 2.5 μM, 22 hour incubation
T2 construct: host or cells: HEK-Blue cells
T2 sequence (Q9NYK1 27-1049): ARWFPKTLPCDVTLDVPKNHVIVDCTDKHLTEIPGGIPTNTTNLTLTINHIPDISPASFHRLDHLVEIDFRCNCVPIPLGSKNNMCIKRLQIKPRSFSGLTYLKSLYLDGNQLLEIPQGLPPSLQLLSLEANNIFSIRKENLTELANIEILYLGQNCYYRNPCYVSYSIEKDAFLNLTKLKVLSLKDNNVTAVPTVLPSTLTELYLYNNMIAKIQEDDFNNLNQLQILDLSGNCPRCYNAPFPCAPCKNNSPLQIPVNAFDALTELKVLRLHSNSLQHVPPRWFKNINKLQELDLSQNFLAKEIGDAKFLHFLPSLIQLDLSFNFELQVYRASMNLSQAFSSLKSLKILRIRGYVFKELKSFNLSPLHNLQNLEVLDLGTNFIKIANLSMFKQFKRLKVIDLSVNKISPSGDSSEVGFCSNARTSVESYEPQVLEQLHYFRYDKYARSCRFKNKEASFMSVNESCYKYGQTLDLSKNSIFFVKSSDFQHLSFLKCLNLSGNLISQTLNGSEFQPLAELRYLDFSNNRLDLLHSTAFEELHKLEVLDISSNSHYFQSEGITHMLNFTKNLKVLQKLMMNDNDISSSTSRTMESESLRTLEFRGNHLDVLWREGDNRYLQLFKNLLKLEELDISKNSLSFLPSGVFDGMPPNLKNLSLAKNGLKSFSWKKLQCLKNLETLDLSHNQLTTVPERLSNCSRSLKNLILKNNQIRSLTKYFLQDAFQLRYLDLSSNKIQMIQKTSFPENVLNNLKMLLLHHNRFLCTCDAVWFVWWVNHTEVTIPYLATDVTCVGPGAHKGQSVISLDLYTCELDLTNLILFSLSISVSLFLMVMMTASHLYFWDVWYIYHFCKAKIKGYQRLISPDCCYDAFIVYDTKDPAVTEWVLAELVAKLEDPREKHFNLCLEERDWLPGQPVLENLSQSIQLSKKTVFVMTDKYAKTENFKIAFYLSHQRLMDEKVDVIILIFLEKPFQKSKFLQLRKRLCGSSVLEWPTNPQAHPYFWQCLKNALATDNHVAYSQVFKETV
Protocol: as §1, §2

[3] = molecular target: T3, human TLR8 (Homo sapiens, UniProt Q9NR97); experiment: TLR8 inhibition reporter assay (HEK-Blue, SEAP); settings: HEK-Blue cells overexpressing human TLR8, ligand R848 14.25 μM, 22 hour incubation
T3 construct: host or cells: HEK-Blue cells
T3 sequence (Q9NR97 27-1041): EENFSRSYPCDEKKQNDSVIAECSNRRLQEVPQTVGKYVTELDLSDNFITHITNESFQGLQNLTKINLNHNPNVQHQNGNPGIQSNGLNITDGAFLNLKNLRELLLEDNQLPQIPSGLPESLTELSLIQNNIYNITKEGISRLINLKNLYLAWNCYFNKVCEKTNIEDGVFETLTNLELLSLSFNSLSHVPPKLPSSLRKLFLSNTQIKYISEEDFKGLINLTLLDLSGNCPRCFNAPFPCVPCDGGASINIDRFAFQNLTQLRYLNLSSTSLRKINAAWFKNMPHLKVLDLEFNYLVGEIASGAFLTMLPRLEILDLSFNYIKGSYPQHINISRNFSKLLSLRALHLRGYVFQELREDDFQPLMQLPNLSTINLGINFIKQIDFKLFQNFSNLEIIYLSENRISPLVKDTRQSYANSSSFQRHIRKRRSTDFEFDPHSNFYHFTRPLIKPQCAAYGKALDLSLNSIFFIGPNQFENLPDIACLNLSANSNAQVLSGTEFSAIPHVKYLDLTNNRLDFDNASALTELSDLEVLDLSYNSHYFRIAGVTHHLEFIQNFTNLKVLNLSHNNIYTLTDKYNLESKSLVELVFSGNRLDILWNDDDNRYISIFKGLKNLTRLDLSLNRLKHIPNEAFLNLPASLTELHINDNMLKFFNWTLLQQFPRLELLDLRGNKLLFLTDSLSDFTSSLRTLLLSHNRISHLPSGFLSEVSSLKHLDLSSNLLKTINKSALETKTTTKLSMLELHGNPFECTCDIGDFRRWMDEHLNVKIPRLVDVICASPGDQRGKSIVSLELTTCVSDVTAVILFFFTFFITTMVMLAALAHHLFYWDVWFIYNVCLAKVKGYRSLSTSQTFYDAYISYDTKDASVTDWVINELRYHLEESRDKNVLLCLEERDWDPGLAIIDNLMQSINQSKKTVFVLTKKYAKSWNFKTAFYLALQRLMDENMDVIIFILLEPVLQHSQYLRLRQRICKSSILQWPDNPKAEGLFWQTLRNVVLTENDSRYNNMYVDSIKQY
Protocol: as §1, §2

Row | Structure (SMILES) | IC50 [1] | IC50 [2] | IC50 [3]
1 | COCCN1C[C@H]2C[C@H](N3CCC(c4cc(C)c5nc(-c6cc(OC)c7ncnn7c6)n(C)c5n4)CC3)C[C@H]2C1 [Example 46, 2-(8-methoxy-[1,2,4]triazolo[1,5-a]pyridin-6-yl)-5-(1-((3aR,5s,6aS)-2-(2-methoxyethyl)octahydrocyclopenta[c]pyrrol-5-yl)piperidin-4-yl)-3,7-dimethyl-3H-imidazo[4,5-b]pyridine] | 0.027 µM | 0.36 µM | > 50 µM
2 | Cc1cc(C2CCN(C3CC4CCC(C3)N4CC(C)C)CC2)nc2c1nc(-c1ccc(S(C)(=O)=O)cc1)n2C (single isomer, unassigned) [Example 28, 5-(1-(8-isobutyl-8-azabicyclo[3.2.1]octan-3-yl)piperidin-4-yl)-3,7-dimethyl-2-(4-(methylsulfonyl)phenyl)-3H-imidazo[4,5-b]pyridine] | 0.079 µM | 1.4 µM | > 50 µM
3 | COc1ccc(-c2nc3ccc(-c4ccc(N5CCN(C(C)C)CC5)cc4)nc3n2C)cc1OC [Example 52, 2-(3,4-dimethoxyphenyl)-5-(4-(4-isopropylpiperazin-1-yl)phenyl)-3-methyl-3H-imidazo[4,5-b]pyridine] | 0.64 µM | 1.2 µM | > 50 µM
4 | COc1ccc(-c2nc3c(C)cc(C4CCN([C@H]5C[C@@H]6CN(CC(C)C)C[C@@H]6C5)CC4)nc3n2C)cc1OC [Example 37, 2-(3,4-dimethoxyphenyl)-5-(1-(2-isobutyloctahydrocyclopenta[c]pyrrol-5-yl)piperidin-4-yl)-3,7-dimethyl-3H-imidazo[4,5-b]pyridine] | 0.1 µM | 1.2 µM | > 50 µM
5 | Cc1cc(C2CCN(C3CCN(C4CCOCC4)CC3)CC2)nc2c1nc(-c1ccc(S(C)(=O)=O)cc1)n2C [Example 25, 3,7-dimethyl-2-(4-(methylsulfonyl)phenyl)-5-(1′-(tetrahydro-2H-pyran-4-yl)-[1,4′-bipiperidin]-4-yl)-3H-imidazo[4,5-b]pyridine] | 0.042 µM | 4.1 µM | > 50 µM
6 | Cc1cc(-c2ccc(CN3CC4(C3)CN(C3CCOCC3)C4)cc2)nc2c1nc(-c1ccc(S(C)(=O)=O)cc1)n2C1CC1 [Example 5, 3-cyclopropyl-7-methyl-2-(4-(methylsulfonyl)phenyl)-5-(4-((6-(tetrahydro-2H-pyran-4-yl)-2,6-diazaspiro[3.3]heptan-2-yl)methyl)phenyl)-3H-imidazo[4,5-b]pyridine] | 0.32 µM | 0.2 µM | 0.26 µM
7 | COc1ccc(-c2nc3c(C)cc(-c4ccc(N5CCC6(CC5)CN(C(C)C)C6)cc4)nc3n2C)cc1OC [Example 58, 2-(3,4-dimethoxyphenyl)-5-(4-(2-isopropyl-2,7-diazaspiro[3.5]nonan-7-yl)phenyl)-3,7-dimethyl-3H-imidazo[4,5-b]pyridine] | 0.54 µM | 1.6 µM | 15 µM
8 | COc1cc(-c2nc3c(C)cc(C4CCN([C@H]5C[C@@H]6CN(C7CCOCC7)C[C@@H]6C5)CC4)nc3n2C)cn2ncnc12 [Example 44, 2-(8-methoxy-[1,2,4]triazolo[1,5-a]pyridin-6-yl)-3,7-dimethyl-5-(1-((3aR,5s,6aS)-2-(tetrahydro-2H-pyran-4-yl)octahydrocyclopenta[c]pyrrol-5-yl)piperidin-4-yl)-3H-imidazo[4,5-b]pyridine] | 0.18 µM | 4.5 µM | > 50 µM
9 | CC(C)CN1CC2(CCN(c3ccc(-c4ccc5nc(-c6ccc(S(C)(=O)=O)cc6)n(C)c5n4)cc3)CC2)C1 [Example 62, 5-(4-(2-isobutyl-2,7-diazaspiro[3.5]nonan-7-yl)phenyl)-3-methyl-2-(4-(methylsulfonyl)phenyl)-3H-imidazo[4,5-b]pyridine] | 0.59 µM | 15 µM | 6.1 µM
10 | CC(C)N1CCN(c2ccc(-c3cnc4nc(-c5ccc(S(C)(=O)=O)cc5)n(C5CC5)c4c3)cc2)CC1 [Example 51, 1-cyclopropyl-6-(4-(4-isopropylpiperazin-1-yl)phenyl)-2-(4-(methylsulfonyl)phenyl)-1H-imidazo[4,5-b]pyridine] | 0.34 µM | 2.7 µM | 4.2 µM
11 | CC(C)N1CCC(N2CCC(c3cnc4nc(-c5ccc(S(C)(=O)=O)cc5)n(C)c4c3)CC2)CC1 [Example 14, 6-(1′-isopropyl-[1,4′-bipiperidin]-4-yl)-1-methyl-2-(4-(methylsulfonyl)phenyl)-1H-imidazo[4,5-b]pyridine] | 3.1 µM | > 50 µM | > 50 µM
